According to the supplement of paper PMC10307832:

Columns and labels:
Test in all cases: relative viability (nuclei count vs DMSO), 5 days (fraction); higher = more cells survive
CX-5461 + Bortezomib = compound: Cc1cnc(CNC(=O)c2c(=O)c3ccc(N4CCCN(C)CC4)nc3n3c2sc2ccccc23)cn1 [CX-5461] + CC(C)C[C@H](NC(=O)[C@H](Cc1ccccc1)NC(=O)c1cnccn1)B(O)O [Bortezomib] (partner 0.002 µM)
Outline: (§1)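 Lung cancer cell lines were pin-tool dosed in 1536-well plates on the day after seeding, with either a lone drug or a fixed anchor-drug dose plus five library-drug doses (not always all listed) in √10 steps. Nuclei were counted on 4× images after 5 days. Relative viability is the ratio of treated-well to vehicle-well nuclei counts, with each value a median of duplicate plates.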

CX-5461 + Pemetrexed = compound: Cc1cnc(CNC(=O)c2c(=O)c3ccc(N4CCCN(C)CC4)nc3n3c2sc2ccccc23)cn1 [CX-5461] + Nc1nc2[nH]cc(CCc3ccc(C(=O)N[C@@H](CCC(=O)O)C(=O)O)cc3)c2c(=O)[nH]1 [Pemetrexed] (partner 0.2 µM)
Outline: as §1

IMD-0354 + Phenformin = compound: O=C(Nc1cc(C(F)(F)F)cc(C(F)(F)F)c1)c1cc(Cl)ccc1O [IMD-0354] + N=C(N)NC(=N)NCCc1ccccc1 [Phenformin] (partner 250 µM)
Outline: as §1

CX-5461 + Navitoclax = compound: Cc1cnc(CNC(=O)c2c(=O)c3ccc(N4CCCN(C)CC4)nc3n3c2sc2ccccc23)cn1 [CX-5461] + CC1(C)CCC(c2ccc(Cl)cc2)=C(CN2CCN(c3ccc(C(=O)NS(=O)(=O)c4ccc(N[C@H](CCN5CCOCC5)CSc5ccccc5)c(S(=O)(=O)C(F)(F)F)c4)cc3)CC2)C1 [Navitoclax] (partner 0.5 µM)
Outline: as §1

Row | Cell Line | relative viability (CX-5461 + Bortezomib; first compound 0.01 µM) | relative viability (CX-5461 + Bortezomib; first compound 0.03162 µM) | relative viability (CX-5461 + Bortezomib; first compound 0.1 µM) | relative viability (CX-5461 + Bortezomib; first compound 0.3162 µM) | relative viability (CX-5461 + Bortezomib; first compound 1 µM) | relative viability (CX-5461 + Pemetrexed; first compound 0.01 µM) | relative viability (CX-5461 + Pemetrexed; first compound 0.03162 µM) | relative viability (CX-5461 + Pemetrexed; first compound 0.1 µM) | relative viability (CX-5461 + Pemetrexed; first compound 0.3162 µM) | relative viability (CX-5461 + Pemetrexed; first compound 1 µM) | relative viability (IMD-0354 + Phenformin; first compound 0.04 µM) | relative viability (IMD-0354 + Phenformin; first compound 0.1265 µM) | relative viability (IMD-0354 + Phenformin; first compound 0.4 µM) | relative viability (IMD-0354 + Phenformin; first compound 1.265 µM) | relative viability (IMD-0354 + Phenformin; first compound 4 µM) | relative viability (CX-5461 + Navitoclax; first compound 0.01 µM) | relative viability (CX-5461 + Navitoclax; first compound 0.03162 µM) | relative viability (CX-5461 + Navitoclax; first compound 0.1 µM) | relative viability (CX-5461 + Navitoclax; first compound 0.3162 µM) | relative viability (CX-5461 + Navitoclax; first compound 1 µM)
1 | HCC-44 | 0.898 | 0.973 | 0.844 | 0.838 | 0.807 | 0.56 | 0.694 | 0.644 | 0.649 | 0.55 | 0.241 | 0.32 | 0.193 | 0.139 | 0.105 | 0.931 | 1.08 | 1.09 | 0.983 | 1.02
2 | HCC-78 | 0.434 | 0.485 | 0.548 | 0.498 | 0.428 | 0.896 | 0.939 | 0.904 | 0.907 | 0.862 | 0.667 | 0.697 | 0.398 | 0.439 | 0.292 | 0.984 | 0.839 | 0.724 | 0.543 | 0.769
3 | HCC-366 | 1.08 | 1.18 | 1.06 | 1.04 | 0.114 | 0.196 | 0.172 | 0.179 | 0.197 | 0.149 | 0.574 | 0.562 | 0.276 | 0.0732 | 0.0339 | 1.04 | 1.06 | 1.16 | 1.1 | 1.11
4 | HCC-827 | 1.01 | 1.06 | 1.02 | 1.06 | 0.997 | 0.292 | 0.253 | 0.268 | 0.225 | 0.331 | 0.411 | 0.353 | 0.228 | 0.178 | 0.174 | 1.07 | 1.01 | 1.02 | 1.02 | 0.975
5 | HOP-62 | 0.726 | 0.84 | 0.896 | 0.909 | 0.424 | 0.236 | 0.384 | 0.297 | 0.28 | 0.321 | 0.842 | 0.482 | 0.363 | 0.12 | 0.165 | 0.908 | 1.16 | 1.21 | – | 1.02
6 | LC-2-ad | 0.967 | 1.09 | 1.06 | 1.06 | 0.638 | 0.238 | 0.27 | 0.244 | 0.296 | 0.279 | 0.612 | 0.548 | 0.232 | 0.267 | 0.17 | 0.449 | 0.533 | 0.434 | 0.553 | 0.362
7 | LCLC-97TM1 | 0.69 | 0.34 | 0.457 | – | 0.119 | 0.178 | 0.193 | 0.196 | 0.103 | 0.155 | 0.43 | 0.451 | 0.234 | 0.18 | 0.126 | 0.405 | 0.523 | 0.325 | – | 0.467
8 | LOU-NH91 | 0.509 | 0.492 | 0.485 | – | 0.452 | 0.35 | 0.377 | 0.409 | 0.354 | 0.344 | 0.498 | 0.393 | 0.208 | 0.143 | 0.166 | 0.7 | 0.694 | 0.735 | 0.472 | 0.575
9 | LU99A | 1.1 | 1.02 | 0.977 | 0.868 | 0.417 | 0.197 | 0.175 | 0.159 | 0.188 | 0.179 | 0.529 | 0.826 | 0.417 | 0.218 | 0.265 | 0.764 | 0.938 | 0.741 | 0.676 | 0.898
10 | LXF-289 | 0.99 | 1.06 | 0.976 | 1.03 | 0.66 | 0.867 | 0.933 | 0.847 | – | 0.574 | 0.548 | 0.504 | 0.329 | 0.124 | 0.0658 | 0.94 | 0.985 | 0.995 | 0.875 | 0.957
11 | NCI-H23 | 0.939 | 0.964 | 0.854 | 1.06 | 0.404 | 0.524 | 0.862 | 0.7 | 0.71 | 0.508 | 0.811 | 0.81 | 0.313 | 0.198 | 0.189 | 0.958 | 0.859 | 0.986 | 0.839 | 0.726
12 | NCI-H322M | 1.2 | 1.35 | 1.26 | – | 1.23 | 0.568 | 0.558 | 0.708 | 0.567 | 0.62 | 0.865 | 0.796 | 0.378 | 0.277 | 0.375 | 1.34 | 1.31 | 1.12 | – | 1.17
13 | NCI-H441 | 0.577 | 0.555 | 0.692 | 0.465 | 0.337 | 0.261 | 0.268 | 0.241 | 0.242 | 0.226 | 0.79 | 0.693 | 0.45 | 0.177 | 0.262 | 0.514 | 0.821 | 0.57 | 0.703 | 0.583
14 | NCI-H460 | 1.15 | 0.995 | 0.16 | 0.233 | 0.0251 | 0.0543 | 0.0602 | 0.0575 | 0.0623 | 0.0755 | 0.514 | 0.365 | 0.103 | 0.0203 | 0.0155 | 1.04 | 1.02 | 0.273 | 1.09 | 0.0167
15 | NCI-H520 | 0.612 | 0.527 | 0.627 | 0.257 | 0.315 | 0.719 | 0.725 | 0.708 | 0.608 | 0.484 | 0.738 | 0.51 | 0.299 | 0.168 | 0.194 | 1.09 | 0.891 | 1.05 | 1.05 | 0.793
16 | NCI-H596 | 0.948 | – | 0.594 | 1.03 | 0.529 | 0.47 | 0.45 | 0.523 | 0.504 | 0.48 | 0.852 | 0.748 | 0.547 | 0.898 | 0.318 | 0.928 | 1.01 | 1.18 | 0.98 | 1.02
17 | NCI-H647 | 1.16 | 0.991 | 0.95 | 0.935 | 0.168 | 0.186 | 0.165 | 0.176 | 0.194 | 0.158 | 0.784 | 0.376 | 0.283 | 0.129 | 0.0531 | 1.26 | 1.27 | 1.19 | 0.709 | 0.7
18 | NCI-H838 | 0.902 | 0.85 | 0.979 | 0.29 | 0.646 | 0.251 | 0.248 | 0.244 | 0.232 | 0.241 | 0.685 | 0.448 | 0.358 | 0.234 | 0.207 | 1.22 | 1.24 | 1.21 | 1.06 | 0.897
19 | NCI-H1355 | 1.2 | 1.19 | 1.12 | 1.28 | 0.877 | 1.08 | 1.08 | 1.03 | 1.02 | 0.853 | 0.437 | 0.415 | 0.432 | 0.24 | 0.236 | 0.882 | 1.03 | 0.986 | 1.01 | 1
20 | NCI-H1437 | 0.45 | 0.423 | – | 0.369 | 0.316 | 0.31 | 0.307 | 0.268 | 0.307 | 0.29 | 0.317 | 0.279 | 0.195 | 0.15 | 0.2 | 1.09 | 1.1 | – | 1.03 | 0.928
21 | NCI-H1650 | 0.202 | 0.191 | – | 0.19 | 0.175 | 0.377 | 0.477 | 0.336 | 0.35 | 0.241 | 0.46 | 0.396 | 0.304 | 0.174 | 0.209 | 1.29 | 1.02 | – | 1.23 | 0.2
22 | NCI-H1651 | 0.899 | 0.896 | 0.816 | 0.969 | 0.404 | 0.551 | 0.6 | 0.546 | 0.623 | 0.18 | 0.35 | 0.22 | 0.198 | 0.106 | 0.0771 | – | 0.882 | – | 0.694 | 0.0867
23 | NCI-H1666 | 0.839 | 0.741 | – | 0.758 | 0.505 | 0.854 | 0.848 | 1.01 | 0.828 | 0.769 | 0.592 | 0.558 | 0.476 | 0.384 | 0.254 | 0.967 | 1 | – | 0.766 | 0.397
24 | NCI-H1734 | 0.948 | 1.18 | 0.838 | 0.751 | 0.45 | 0.404 | 0.435 | 0.419 | 0.39 | 0.432 | 0.393 | 0.284 | 0.257 | 0.165 | 0.129 | 0.979 | 0.896 | 0.887 | 0.728 | 0.761
25 | NCI-H1755 | 1.05 | 1.03 | 0.972 | 0.99 | 0.877 | 0.389 | 0.507 | 0.427 | 0.399 | 0.488 | 0.603 | 0.547 | 0.411 | 0.273 | 0.252 | 0.979 | 0.992 | 1.01 | 0.997 | 0.883
26 | NCI-H1792 | 0.935 | 1.16 | 0.966 | 0.965 | 0.848 | 0.897 | 0.929 | 0.964 | 1.02 | 0.296 | 0.175 | 0.225 | 0.226 | 0.167 | 0.139 | 0.657 | 0.674 | 0.696 | 0.692 | 0.468
27 | NCI-H1915 | 1.03 | 1.06 | 0.989 | 1.02 | 0.891 | 0.536 | 0.509 | 0.487 | 0.496 | 0.495 | 0.37 | 0.31 | 0.26 | 0.182 | 0.156 | 0.799 | 0.784 | 0.809 | 0.743 | 0.758
